Values after ≈ are worked out from the molar mass of the structure shown. Read-outs that look alike come from different tables or passages of the source.
Tests used:
[1] = tested on: Mycobacterium tuberculosis (Mtb) H37Rv ATCC 27294; assay: microbe, parasite or virus in culture; format: cell-based; details: Mycobacterium tuberculosis, read-out: Mtb MIC
[2] = tested on: Mycobacterium tuberculosis (Mtb) H37Rv; assay: Mtb minimal bactericidal concentration (MBC), plating from MIC plates; format: cell-based; details: Table 4, read-out: Mtb MBC
Procedure: Aliquots from sample wells (MIC and higher) from the MIC plates were diluted 1:10 and plated on 7H10 agar plates. Plates were incubated at 37° C. for 3-4 weeks, CFU was enumerated.

[3] = tested on: hypoxia induced non-replicating persistent (NRP) Mtb cells; assay: Activity against hypoxia induced non-replicating persistent (NRP) Mtb (HBC, Wayne model); format: cell-based, Mycobacterium tuberculosis; details: hypoxic conditions, Wayne model; Table 4
[4] = tested on: A549 human lung carcinoma cells; format: cell-based; details: 72 hours treatment; Table 4
Procedure: The in vitro cytotoxicity of compounds were measured against A549 human lung carcinoma cells as describedin Eakin et. al (2012). Briefly, A549 cells (ATCC) were grown in RPMI medium (GIBCO-BRL) containing 10% heat-inactivated fetal bovine serum (GIBCO-BRL) and 1 mM L-glutamine (GIBCO-BRL) at a density of 1,000 cells/well. After incubation of the cells with compound in a CO2 atmosphere at 37° C. for 72 hours, cell viability was determined following addition of […] of resazurin solution (Sigma), by measuring fluorescence (excitation at 535 nm, emission at 590 nm) using a fluorimeter.

[5] = format: in vitro ADME
Procedure: 1 μM compound was incubated with 1 mg/mL of microsomes (Pooled HLM/MLM with 20 mg/ml protein cone.) at 37° C. in 166 μL of buffer (100 mM phosphate buffer, pH-7.4) containing 2 mM NADPH solution. […] The quench plate was centrifuged at 4000 rpm for 15 min. 30 μL of supernatant was diluted to 300 μL with 50% acetonitrile in water and substrate depletion was analyzed using LC-MS/MS.

[6] = Procedure: Viability of cryopreserved hepatocytes was determined using trypan blue and the cell conc. was adjusted to 10^6 cells per mL with buffer (KHB buffer). 1 μM compound (in Acetonitrile; 0.01% DMSO) was incubated with 500 μL of hepatocyte cells (1 million cells per mL) in a NUNC plate. […] Supernatants were analyzed using LC-MS/MS for substrate depletion.
in vitro = in vitro ADME; details: pH 7.4; mouse microsomes; read-out: Mo micrsomal Clint
Procedure: 1 μM compound was incubated with 1 mg/mL of microsomes (Pooled HLM/MLM with 20 mg/ml protein cone.) at 37° C. in 166 μL of buffer (100 mM phosphate buffer, pH-7.4) containing 2 mM NADPH solution. 20 μL of incubation mix was quenched with 4 volumes chilled acetonitrile at different time points i.e. 0, 2, 5, 10, 20 and 30 min in a fresh 96 well plate. The quench plate was centrifuged at 4000 rpm for 15 min. 30 μL of supernatant was diluted to 300 μL with 50% acetonitrile in water and substrate depletion was analyzed using LC-MS/MS.

in vivo [7] = assay: in vivo
Procedure: PK of azaindoles compounds was performed in mice (healthy and infected) and rats. Mice were pretreated with 100 mg/kg ABT two hours prior to the compound administration. PK data from healthy mice was used to design the dosing regimen for the efficacy study while, information from infected mice was used for the PK-PD analysis.
All oral administration was performed as suspensions in 0.5% HPMC, and 0.1% Tween 80. […] All blood samples were collected via sapheneous vein into Microvette CB300® (Starstedt, Germany) tubes coated with Lithium-Heparin, and plasma was prepared from the collected blood by centrifugation.
One mg/mL stock solution of each compound was prepared in Dimethylsulfoxide (DMSO) and diluted two-fold with acetonitrile. A sixteen point calibration curve was utilized for each analyte, and the standard curves ranged from 0.001 to 40 μg/mL. Plasma/BAL samples were precipitated by adding chilled acetonitrile (1:10 v/v) containing carbamazepine as internal standard (250 ng/mL). Samples were vortexed, and centrifuged at 4000 rpm for 30 min at 10° C. The resulting supernatant was mixed with mobile phase (50% acetonitrile in water with 0.1% formic acid). […] of sample was injected on to a liquid chromatographic system (Waters-ACQUTY UPLC) coupled to triple quadrupole mass spectrometer (Waters-ACQUTY-TQD; MS/MS). Samples were acquired in positive ion mode and detected by multiple reaction monitoring (MRM). Concentrations of the analyte were determined from a standard curve obtained by plotting known concentrations of the analyte against peak area ratios (analyte/internal standard peak response).
PK analysis of the plasma concentration-time relationships were performed with WinNonlin Phoenix Software (version 6.2; Pharsight, USA). […] The maximum concentration of drug in plasma (Cmax), time to Cmax (Tmax), elimination half-life (t1/2), and AUC from time zero to infinity (AUC0-∞) were estimated. […] Minimum of three sample points in the terminal slope were used to estimate to calculate half-life.

[8] = tested on: CYP1A2, CYP2C9, CYP2C19, CYP2D6, CYP3A4; details: CYP1A2, CYP2C9, CYP2C19, CYP2D6, CYP3A4
[9] = tested on: panel of human targets and cardiac channels
in vivo [10] = details: male, Wistar, rat, po, 100 mg/kg
hERG = hERG (Homo sapiens, UniProt Q12809); assay: hERG assay, IonWorks electrophysiology
Chain of hERG (Q12809 whole entry): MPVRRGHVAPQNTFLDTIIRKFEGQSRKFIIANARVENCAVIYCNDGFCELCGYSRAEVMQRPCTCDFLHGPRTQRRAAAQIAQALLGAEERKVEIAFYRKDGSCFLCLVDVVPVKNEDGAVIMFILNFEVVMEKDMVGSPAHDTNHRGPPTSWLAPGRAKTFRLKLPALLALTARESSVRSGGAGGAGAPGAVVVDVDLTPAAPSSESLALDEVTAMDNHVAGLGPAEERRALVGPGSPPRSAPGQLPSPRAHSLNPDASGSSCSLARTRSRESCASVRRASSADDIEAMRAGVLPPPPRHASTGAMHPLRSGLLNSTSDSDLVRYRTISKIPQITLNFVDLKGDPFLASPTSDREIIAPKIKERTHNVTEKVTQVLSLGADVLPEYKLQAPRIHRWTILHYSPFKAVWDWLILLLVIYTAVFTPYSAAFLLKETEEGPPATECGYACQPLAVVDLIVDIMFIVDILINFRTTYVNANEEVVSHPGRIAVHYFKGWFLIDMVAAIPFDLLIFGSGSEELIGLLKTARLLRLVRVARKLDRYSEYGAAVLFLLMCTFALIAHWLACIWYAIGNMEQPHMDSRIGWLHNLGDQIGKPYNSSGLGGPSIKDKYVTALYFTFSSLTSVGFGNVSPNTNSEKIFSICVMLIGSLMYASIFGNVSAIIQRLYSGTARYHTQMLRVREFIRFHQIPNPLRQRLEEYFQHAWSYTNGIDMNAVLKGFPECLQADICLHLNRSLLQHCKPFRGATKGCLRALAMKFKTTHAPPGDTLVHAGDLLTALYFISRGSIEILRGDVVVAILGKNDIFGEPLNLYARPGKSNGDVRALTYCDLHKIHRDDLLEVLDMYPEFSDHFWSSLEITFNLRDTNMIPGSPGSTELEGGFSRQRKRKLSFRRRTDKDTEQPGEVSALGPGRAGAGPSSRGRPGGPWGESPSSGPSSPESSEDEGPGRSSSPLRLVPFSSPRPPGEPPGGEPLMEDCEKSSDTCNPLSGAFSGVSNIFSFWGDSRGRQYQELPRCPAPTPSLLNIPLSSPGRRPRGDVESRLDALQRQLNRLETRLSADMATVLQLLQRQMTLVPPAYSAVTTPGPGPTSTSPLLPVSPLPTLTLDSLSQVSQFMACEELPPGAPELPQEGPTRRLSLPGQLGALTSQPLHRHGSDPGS
Procedure: Compounds were tested on voltage-gated ion channels using the medium-throughput electrophysiology IonWorks™ device. […] For carrying out the experiment, a boat in the “Cells” position of the IonWorks™ instrument was loaded with the cell suspension, and a 96-well PBS destination plate was placed in the “Plate 1” position. A 384-well PatchPlate™ was placed in the IonWorks™ plenum and held in position using the plenum clamp. From this point the experiment progress is automated and ultimately reports a non-cumulative concentration-effect curve for test compound.

[11] = Wistar, rat, in vivo, iv, 2 mg/kg
[12] = Wistar, rat, in vivo, po, 20 mg/kg

**Q.** What does the source list for `COc1ncnc(Cn2cc(C(=O)NCCO)c3ncc(C)cc32)c1C` [Compound 17, N-(2-hydroxyethyl)-1-((6-methoxy-5-methylpyrimidin-4-yl)methyl)-6-methyl-1H-pyrrolo[3,2-b]pyridine-3-carboxamide]?
**A.** MIC ([1]; Table 1): 1.56 µM (≈ 0.554 µg/mL); MIC ([1]; Table 4): 1.56 to 3.12 µM (≈ 0.554 to 1.11 µg/mL); MBC [2]: 0.78 to 1.56 µM (≈ 0.277 to 0.554 µg/mL); Mtb HBC [3]: >100 µM; MMIC (A549) [4]: >100 µM; predicted clearance ([5]; human, rat): 4-18 % of liver blood flow (% LBF); Human CLpred microsomes (% LBF) ([5]; pH 7.4): 16.1 % LBF; Human CLpred hepatocytes (% LBF) [6]: 9.2 % LBF; Rat CLpred hepatocytes (% LBF) [6]: 17.9 % LBF; microsomal CLint (in vitro): 25 µL/min/mg; AUC(0-inf) (in vivo [7]; BALB/c, mouse, po, 50 mg/kg): 420 ± 23.5 µM·h; Cmax (in vivo [7]; BALB/c, mouse, po, 50 mg/kg): 74.8 ± 15.6 µM; Tmax (in vivo [7]; BALB/c, mouse, po, 50 mg/kg): 1.33 ± 0.58 h; half-life (in vivo [7]; BALB/c, mouse, po, 50 mg/kg): 1.78 ± 0.1 h; C0h (in vivo [7]; Wistar rats, IV 2 mg/kg, n = 2): 2.64 µM; F (in vivo [7]; Wistar rats, oral 20 mg/kg, n = 2): 100%; AUC(0-t) (in vivo [7]; [11]): 3.46 µM·h; Vd (in vivo [7]; [11]): 7.34 L/kg; clearance (in vivo [7]; [11]): 27.4 mL/min/kg; bioavailability (in vivo [7]; Wistar, rat, in vivo, po): 92%; AUC(0-inf) (in vivo [7]; [12]): 59.8 µM·h; Cmax (in vivo [7]; [12]): 17.8 µM; Tmax (in vivo [7]; [12]): 0.5 h; half-life (in vivo [7]; [12]): 2.74 h; CYP inhibition [8]: >50 µM; Secondary pharmacology hits IC50 [9]: No significant hits; in vitro safety profiling [9]: no major safety liabilities; AUC(0-inf) (in vivo [10]): 986 ± 274 µM·h; Cmax (in vivo [10]): 46.1 ± 7.7 µM; Tmax (in vivo [10]): 5.3 ± 1.2 h; half-life (in vivo [10]): 3.8 ± 0.6 h; hERG (hERG): >33 µM
